ChEMBL document CHEMBL1158259, “Tonkinecin, a novel bioactive annonaceous acetogenin from Uvaria tonkinesis” (J Nat Prod, 1996)

What was measured:
Type in all cases: functional, cell-based
[1] = Cytotoxicity against human BGC cells after 5 days by MTT assay; settings: 120 h
HCT-8 = assay: Cytotoxicity against human HCT8 cells after 5 days by MTT assay; settings: HCT-8, 120 h
HL-60 = assay: Cytotoxicity against human HL60 cells after 5 days by MTT assay; settings: HL-60, 120 h
Bel-7402 = assay: Cytotoxicity against human Bel7402 cells after 5 days by MTT assay; settings: Bel-7402, 120 h

SMILES	IC50 [1]	IC50 (HCT-8)	IC50 (HL-60)	IC50 (Bel-7402)
COc1cc([C@@H]2c3cc4c(cc3[C@@H](O[C@@H]3O[C@@H]5CO[C@@H](C)O[C@H]5[C@H](O)[C@H]3O)[C@H]3COC(=O)[C@H]23)OCO4)cc(OC)c1O [ETOPOSIDE]	6.7 µM	6.4 µM	0.16 µM	1.9 µM
CCCCCCCCCCCC[C@@H](O)[C@H]1CC[C@H]([C@H](O)CCCCCCCCCCC[C@H](O)CCC2=C[C@H](C)OC2=O)O1 [TONKINECIN]	5.1 µM	0.38 µM	0.52 µM	1.5 µM
